The source of these data is US6479079B1, “Anticalcification treatments for fixed biomaterials” (Sulzer Carbomedics Inc., priority 1999, dated 2002).

Series [1] deals with porcine cusp tissue. Briefly: Calcium and phosphorus content after subcutaneous implantation in rats (Example 2). The settings on record: 60 days of implantation. It is filed as in vivo, Sprague-Dawley rats. As to the method: (§1) In a sterile hood, pieces of glutaraldehyde-fixed bovine pericardium tissue (Mitroflow Inc.; Richmond, British Columbia, Canada) porcine cusp tissue (Labcor; Belo Horizonte, Brazil) and porcine wall tissue (Labcor Inc.) were transferred into sterile tubes containing 1,2-octanediol solutions (5% […] (Aldrich Chemical), 40% ethanol and 55% 10 mM HEPES buffer). The tubes were transferred to a 37° C. incubator and maintained at 37° C. with gentle agitation for about 16 hours. After the treatment, the samples were transferred to solutions comprising 22% ethanol in 10 mM HEPES and stored for 14 days at 4° C. The final tissue to volume ratio for all treatments was approximately 27 ml/g.
(§2) For N-methyl pyrolidinone (NMP) treatments, pieces of glutaraldehyde-fixed bovine pericardium tissue (Mitroflow Inc.), porcine cusp tissue (Labcor Inc.) and porcine wall tissue (Labcor Inc.) were transferred into sterile tubes containing NMP. The tubes were incubated at room temperature for about 16 hours with occasional manual agitation. After the treatment, the tissue samples were transferred to 22% HEPES-buffered ethanol solutions and stored for 14 days at 4° C.
(§3) Samples treated with the 1,2-octanediol solutions and with NMP, as well as untreated samples of each tissue type, were provided to Charles Rivers Laboratories (Wilmington, Mass.) for implantation into rats. Seven rats per treatment group were analyzed. Prior to implantation, the tissue samples were rinsed for 3 minutes×3 in sterile PBS, accompanied by gentle agitation. The samples were implanted subcutaneously approximately 1 cm from the abdominal midline in 3 week old Sprague-Dawley rats and retrieved after 60 days of implantation. Unimplanted samples (one per tissue type per treatment) were used as unimplanted controls. After retrieval, the samples were analyzed for their calcium and phosphorus contents using a standard ICP methodology.

Series [2] has as its system porcine wall tissue. The description is as above. It is filed as in vivo, Sprague-Dawley rats. The note with it: 60 days of implantation. The method, then: as §1, §2, §3
The subject of series [3] is glutaraldehyde-fixed bovine pericardium tissue. Briefly: Calcium and phosphorus content after subcutaneous implantation in rats (Examples 2 and 3). It is filed as in vivo, Sprague-Dawley rats. The note with it: for Calcuim / Phosphorus: Bovine Pericardium, 60 days of implantation. The method, then:
as §1, §2, §3
In a sterile hood, pieces of glutaraldehyde-fixed bovine pericardium tissue (Mitroflow Inc.) were transferred into sterile tubes containing a 45% solution of HEPES-buffered ethanol (45% ethanol, 55% 10 mM HEPES buffer). The tubes were transferred to a 37° C. incubator and maintained at 37° C. with gentle agitation for about 16 hours. After the treatment, the samples were transferred to fresh solution of 45% HEPES-buffered ethanol and stored for 14 days at room temperature (˜25° C.). The final tissue to volume ratio for all treatments was approximately 27 ml /g.
as §3, with “45% ethanol solution,” for “1,2-octanediol solutions and with NMP,”, “by ICP.” for “using a standard ICP methodology.”

The nature of series [4]: Shrinkage temperature by differential scanning calorimetric analysis. The class given is physicochemical, bovine. Background: DSC measures the heat that a sample takes up or gives off during a temperature scan.
Experimental: The samples were then analyzed to evaluate the presence of extractable proteins and to determine shrinkage temperatures.
The shrinkage temperatures of the treated tissues were also determined using standard differential scanning calorimetric analysis. Typically, 2-10 mg of tissue was heated at the rate of 10° C. per minute under nitrogen atmosphere. The onset of the endotherm observed at about 60-90° C. is conventionally attributed to a shrinkage transition, and was used as the shrinkage temperature. An increase in the shrinkage temperature is an indication that cross-linking has occurred.
For these experiments, bovine pericardium samples were placed in 0.25% solutions of glutaraldehyde in PBS where they remained at room temperature for about 7 days. The cross-linked tissues were then subjected to either 1,2-octanediol or NMP treatments, as described above. The treated samples were then analyzed for extractable proteins and to determine shrinkage temperatures.
Series [5] deals with glutaraldehyde fixed bovine pericardium. Briefly: Calcification after subcutaneous implantation in rats (Example 1). The class given is in vivo, Sprague-Dawley rats. The settings on record: alcohol treatment 24 hrs, retrieved after 60 days. As to the method:
Bovine pericardium was obtained fresh from the abattoir, trimmed to remove excess fat, and stored in a high osmolarity solution until use. Prior to fixation, the tissue was rinsed thoroughly in phosphate buffered saline (PBS) having a pH of 7.3-7.4. A 0.25% solution of glutaraldehyde was prepared by adding 2.5 ml of a 50% glutaraldehyde solution (Aldrich Chemical) to 500 ml using PBS. Fifteen 1 cm×1 cm samples of bovine pericardium tissue were added to the glutaraldehyde solution and the tube was stored at room temperature for 7 days.
In a sterile hood, glutaraldehyde fixed bovine pericardium pieces were washed with sterile PBS (3 washes, 10 minutes each). The samples were then immersed in a sterile filtered solution of 40% ethanol, 5% octanol, 55% water and treated for 24 hours at room temperature. The tissue was then washed with sterile PBS (3 washes, 10 minutes each), and in sterile filtered 45% ethanol in PBS for about 30 minutes. […]
The calcium content of the retrieved samples was determined by hydrolyzing the samples under acidic conditions and analyzing the digested samples using standard inductively coupled plasma (ICP) emission spectrophotometry. […] The resulting digested sample was diluted with water and analyzed using an ICP spectrophotometer (Varian Inc.; Liberty 100/200 ICP-OCS).

[6] abbreviates: treated at 37° C. about 16 hours (Example 3).

With `CCCCCCC(O)CO` (centres unmarked) [1,2-octanediol], the results for the Calcuim in series [1], in series [2] and in series [3] were 44.1 μg/mg tissue, 106.4 μg/mg tissue and 3.4 μg/mg tissue, respectively. In addition, the Phosphorus is on record as 21.9 μg/mg tissue in series [1], 53.0 μg/mg tissue in series [2] and 0 μg/mg tissue in series [3].
`CN1CCCC1=O` [NMP, N-methyl pyrolidinone]: the Calcuim in series [1] was 14.7 μg/mg tissue; in series [2], 111.9 μg/mg tissue; in series [3], 8.0 μg/mg tissue. Besides, the Phosphorus in series [1] was 7.9 μg/mg tissue; in series [2], 55.2 μg/mg tissue; in series [3], 3.4 μg/mg tissue. Further, in series [3] (all tissue types, most pronounced with bovine pericardium), the “calcium and phosphorus levels of explanted tissues” value is listed as “significantly reduced”. In series [4], the “effect on shrinkage temperature compared with untreated tissue” value was “no significant effect”. Also, the “Shrink Temperature” value in series [4] (glutaraldehyde 0.25% about 7 days, then post-fixation treatment) came out at 85.6 °C.
`CCO` [45% EtOH, ethanol]: in series [3] (setting [6]), the Calcuim is on record as 3.4 μg/mg tissue and the Phosphorus was determined as 0.0 μg/mg tissue. Also, the “calcium and phosphorus levels compared with no anticalcification treatment” value in series [3] (Example 3) is reported as “significant reduction”. In addition, the Calcium in series [5] (glutaraldehyde 0.25%, 14 days (45% EtOH) or 7 days (octanol), ICP) stood at 168 μg/mg dry tissue. Also, the “Average von Kossa Grading” value in series [5] (graded from 0 (none) to 5 (severe)) is 5.
